Reference: patent US8338450B2, “Compounds as dipeptidyl peptidase IV (DPP IV) inhibitors” (Lupin Limited, priority 2007, dated 2012)
Structures can show the parent of a compound that is named as a salt.

These molecules were tested against T1, human recombinant DPP-IV (Homo sapiens, UniProt P27487) (assay: Inhibition of human recombinant DPP-IV (Gly-Pro-AMC hydrolysis, fluorometric)). Details: compound 10 nM; relative to vehicle controls.
T1 construct: purchased R&D Systems, USA (or produced in-house)
T1 sequence (P27487 whole entry): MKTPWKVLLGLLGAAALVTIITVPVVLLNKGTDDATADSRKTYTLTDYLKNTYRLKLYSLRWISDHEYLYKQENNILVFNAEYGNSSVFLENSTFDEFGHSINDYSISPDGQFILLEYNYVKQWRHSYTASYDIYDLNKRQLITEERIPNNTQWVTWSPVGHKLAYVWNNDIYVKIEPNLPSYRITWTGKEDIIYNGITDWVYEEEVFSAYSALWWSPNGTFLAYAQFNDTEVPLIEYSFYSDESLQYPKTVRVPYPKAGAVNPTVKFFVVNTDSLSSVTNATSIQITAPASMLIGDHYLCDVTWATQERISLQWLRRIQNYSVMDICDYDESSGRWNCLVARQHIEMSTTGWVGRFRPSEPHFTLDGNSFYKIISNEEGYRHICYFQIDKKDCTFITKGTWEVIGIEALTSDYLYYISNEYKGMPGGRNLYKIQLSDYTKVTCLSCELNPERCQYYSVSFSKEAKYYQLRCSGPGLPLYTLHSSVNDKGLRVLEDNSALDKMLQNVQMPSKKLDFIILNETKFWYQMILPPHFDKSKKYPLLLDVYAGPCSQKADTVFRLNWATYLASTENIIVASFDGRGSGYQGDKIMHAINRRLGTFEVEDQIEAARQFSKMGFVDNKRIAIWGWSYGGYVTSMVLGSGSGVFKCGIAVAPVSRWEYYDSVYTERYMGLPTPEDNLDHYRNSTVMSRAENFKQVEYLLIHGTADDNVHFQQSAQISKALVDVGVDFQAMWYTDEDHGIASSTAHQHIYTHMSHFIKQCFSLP
Format: biochemical
Method: Inhibition of Human Recombinant DPP-IV
The proteolytic activity of human recombinant DPP-IV was determined by following the hydrolysis of Gly-Pro-7-amino-4-methylcoumarin (Gly-Pro-AMC) and the fluorometric quantitation of the liberated AMC. Assays were routinely carried out in 96-well flat-bottom black microwell plates. The reaction mixture (100 μl) contained 10 ng of human recombinant DPP-IV enzyme (produced in-house or procured from R&D Systems, USA) in the assay buffer (25 mM Tris-HCl, pH 7.4, 140 mM NaCl, 10 mM KCl and 0.1 mg/ml BSA) and 50 μM Gly-Pro-AMC. After incubation of assay plates at 30° C. for 30 min, the hydrolysis of Gly-Pro-AMC was monitored in a fluorescence microplate reader (Molecular Devices SpectraMax M5), with excitation and emission wavelengths set at 360 nm and 460 nm, respectively.
The inhibition of DPP-IV activity by test compounds was routinely performed by preincubating the enzyme with test compound (10 and 100 nM for primary screening and 8 concentrations from 0.1 to 1000 nM for the dose-response study) or vehicle (0.01% DMSO) for 15 min at 30° C., in a total volume of 90 μl. Test compounds were dissolved in DMSO at a concentration of 10 mM and serially diluted further in assay buffer. The enzyme reaction was initiated by the addition of Gly-Pro-AMC, followed by incubation of assay plates for 30 min at 30° C. and the liberated AMC was measured as described above. A known inhibitor of DPP-IV (positive control) was always included in the assay. Test compounds at various concentrations were always evaluated in duplicate, along with substrate blanks, vehicle controls and positive controls.
The results are expressed as percent inhibition of the enzyme activity relative to vehicle controls. Dose-response studies were conducted for those compounds exerting ≧50% inhibition of activity at 10 nM in primary screening. IC50, defined as the inhibitor concentration which caused a 50% decrease of the activity under assay conditions, was computed using GraphPad Prism software, version 5.0.
The DPP-IV inhibition data (expressed either as IC50 in nanomolar or percent inhibition at a particular compound concentration) is presented in Table 1.

Q: N#C[C@H]1C[C@H]2C[C@H]2N1C(=O)[C@@H](N)C1CC2CCC(C1)N2C(=O)c1cnccn1.O=C(O)C(F)(F)F (stereo partly drawn) [Compound 37, (1R,3R,5R)-2-{(2S)-2-Amino-2-[8-(pyrazine-2-carbonyl)-8-aza-bicyclo[3.2.1]oct-3-yl]-exo-ethanoyl}-2-azabicyclo[3.1.0]hexane-3-carbonitrile trifluoroacetic acid salt] was tested. Which “% inhibition at 10 nM” value did it give?
A: 7% inhibition at 10 nM

Q: How did the “% inhibition at 10 nM” value turn out when N#C[C@@H]1C[C@@H]2C[C@@H]2N1C(=O)[C@@H](N)C1CC2CCC(C1)N2CC1CCCCC1.O=C(O)C(F)(F)F (stereo partly drawn) [Compound 48, (1S,3S,5S)-2-{(2S)-2-Amino-2-[8-(cyclohexylmethyl)-8-aza-bicyclo[3.2.1]oct-3-yl]-exo-ethanoyl}-2-azabicyclo-[3.1.0]hexane-3-carbonitrile trifluoroacetic acid salt] was run?
A: 22% inhibition at 10 nM

Q: For N#C[C@@H]1C[C@@H]2C[C@@H]2N1C(=O)[C@H](N)C1CC2CCC(C1)N2C(=O)c1ccnc(F)c1.O=C(O)C(F)(F)F (stereo partly drawn) [Compound 31, (1S,3S,5S)-2-{(2R)-2-Amino-2-[8-(2-fluoropyridine-4-carbonyl)-8-aza-bicyclo[3.2.1]oct-3-yl]-exo-ethanoyl}-2-azabicyclo[3.1.0]hexane-3-carbonitrile trifluoroacetic acid salt], which “% inhibition at 10 nM” value is on record?
A: 6% inhibition at 10 nM

Q: How did the “% inhibition at 10 nM” value turn out when N#C[C@@H]1C[C@@H]2C[C@@H]2N1C(=O)[C@@H](N)C1CC2CCC(C1)N2CCC(F)(F)F.O=C(O)C(F)(F)F (stereo partly drawn) [Compound 47, (1S,3S,5S)-2-{(2S)-2-Amino-2-[8-(3,3,3-trifluoropropyl)-8-aza-bicyclo[3.2.1]oct-3-yl]-exo-ethanoyl}-2-azabicyclo[3.1.0]hexane-3-carbonitrile trifluoroacetic acid salt] was run?
A: 29% inhibition at 10 nM

Q: N#C[C@@H]1C[C@@H]2C[C@@H]2N1C(=O)[C@@H](N)C1CC2CCC(C1)N2C1CCCCC1.O=C(O)C(F)(F)F (stereo partly drawn) [Compound 60, (1S,3S,5S)-2-{(2S)-2-Amino-2-(8-cyclohexyl-8-aza-bicyclo[3.2.1]oct-3-yl)-exo-ethanoyl}-2-azabicyclo[3.1.0]hexane-3-carbonitrile trifluoroacetic acid salt] was tested. Which “% inhibition at 10 nM” value did it give?
A: 10% inhibition at 10 nM

Same assay, conditions: compound 100 nM; relative to vehicle controls

Q: How did the “% inhibition at 100 nM” value turn out when N#C[C@H]1C[C@H]2C[C@H]2N1C(=O)[C@H](N)C1CC2CCC(C1)N2C(=O)c1cnccn1.O=C(O)C(F)(F)F (stereo partly drawn) [Compound 38, (1R,3R,5R)-2-{(2R)-2-Amino-2-[8-(pyrazin-2-carbonyl)-8-aza-bicyclo[3.2.1]oct-3-yl]-exo-ethanoyl}-2-azabicyclo[3.1.0]hexane-3-carbonitrile trifluoroacetic acid salt] was run?
A: 16% inhibition at 100 nM

Q: How did the “% inhibition at 100 nM” value turn out when N#C[C@@H]1C[C@@H]2C[C@@H]2N1C(=O)[C@@H](N)C1CC2CCC(C1)N2C(=O)C12CC3CC(CC(C3)C1)C2.O=C(O)C(F)(F)F (stereo partly drawn) [Compound 43, (1S,3S,5S)-2-{(2S)-2-Amino-2-[8-(adamantane-1-carbonyl)-8-aza-bicyclo[3.2.1]oct-3-yl]-exo-ethanoyl}-2-azabicyclo[3.1.0]hexane-3-carbonitrile trifluoroacetic acid salt] was run?
A: 49% inhibition at 100 nM

Same assay, conditions: human recombinant DPP-IV, 50 μM Gly-Pro-AMC, 30 min at 30° C.

Q: For N#C[C@@H]1C[C@@H]2C[C@@H]2N1C(=O)[C@@H](N)C1CC2CCC(C1)N2C(=O)c1cc(F)ccc1F (stereo partly drawn) [Compound 27, (1S,3S,5S)-2-{(2S)-2-Amino-2-[8-(2,5-difluorobenzoyl)-8-aza-bicyclo[3.2.1]oct-3-yl]-exo-ethanoyl}-2-azabicyclo[3.1.0]hexane-3-carbonitrile trifluoroacetic acid salt], which IC50 is on record?
A: 17.2 nM

Q: For CS(=O)(=O)N1C2CCC1CC([C@H](N)C(=O)N1[C@H](C#N)C[C@@H]3C[C@@H]31)C2 (stereo partly drawn) [Compound 56, (1S,3S,5S)-2-{(2S)-2-Amino-2-[8-(methanesulfonyl)-8-aza-bicyclo[3.2.1]oct-3-yl]-exo-ethanoyl}-2-azabicyclo[3.1.0]hexane-3-carbonitrile trifluoroacetic acid salt], which IC50 is on record?
A: 4.14 nM

Q: For N#C[C@@H]1C[C@@H]2C[C@@H]2N1C(=O)[C@@H](N)C1CC2CCC(C1)N2C(=O)c1ccc(C(F)(F)F)cc1 (stereo partly drawn) [Compound 26, (1S,3S,5S)-2-{(2S)-2-Amino-2-[8-(4-trifluoromethylbenzoyl)-8-aza-bicyclo[3.2.1]oct-3-yl]-exo-ethanoyl}-2-azabicyclo[3.1.0]hexane-3-carbonitrile trifluoroacetic acid salt], which IC50 is on record?
A: 8.9 nM

Q: N#C[C@H]1CSCN1C(=O)[C@@H](N)C1CC2CCC(C1)N2C(=O)c1ccc(C(F)(F)F)cc1 (stereo partly drawn) [Compound 20, (4S)-3-{(2S)-2-Amino-2-[8-(4-trifluoromethyl-benzoyl)-8-aza-bicyclo[3.2.1]oct-3-yl]-exo-ethanoyl}-thiazolidin-4-carbonitrile trifluoroacetetic acid salt] was tested. Which IC50 did it give?
A: 2.8 nM

Q: With N#C[C@@H]1CCCN1C(=O)[C@@H](N)C1CC2CCC(C1)N2C(=O)c1ccncc1 (stereo partly drawn) [Compound 4, (2S)-1-{(2S)-2-Amino-2-[8-(pyridine-4-carbonyl)-8-aza-bicyclo[3.2.1]oct-3-yl]-exo-ethanoyl}-pyrrolidin-2-carbonitrile trifluoroacetic acid salt] as the molecule, how does the IC50 read?
A: 1.03 nM

Q: For N#C[C@@H]1C[C@@H]2C[C@@H]2N1C(=O)[C@@H](N)C1CC2CCC(C1)N2C(=O)c1ccncc1F (stereo partly drawn) [Compound 41, (1S,3S,5S)-2-{(2S)-2-Amino-2-[8-(3-fluoropyridine-4-carbonyl)-8-aza-bicyclo[3.2.1]oct-3-yl]-exo-ethanoyl}-2-azabicyclo[3.1.0]hexane-3-carbonitrile trifluoroacetic acid salt], which IC50 is on record?
A: 4.92 nM

Q: N[C@H](C(=O)N1CCSC1)C1CC2CCC(C1)N2C(=O)c1ccc(C(F)(F)F)cc1 (stereo partly drawn) [Compound 21, 3-{(2S)-2-Amino-2-[8-(4-trifluoromethyl-benzoyl)-8-aza-bicyclo[3.2.1]-oct-3-yl]-exo-ethanoyl}-1,3-thiazolidin trifluoroacetic acid salt] was tested. Which IC50 did it give?
A: 17.9 nM

Q: How did the IC50 turn out when C#C[C@H]1CC[C@@H](C#N)N1C(=O)[C@@H](N)C1CC2CCC(C1)N2C(=O)c1ccncc1F (stereo partly drawn) [Compound 65, (2S,5R)-1-{(2S)-2-Amino-2-[8-(3-fluoropyridin-4-carbonyl)-8-aza-bicyclo[3.2.1]oct-3-yl]-exo-ethanoyl}-5-ethynyl-pyrrolidin-2-carbonitrile trifluoroacetic acid salt] was run?
A: 7.1 nM

Q: For C#C[C@H]1CC[C@@H](C#N)N1C(=O)[C@@H](N)C1CC2CCC(C1)N2C(=O)c1ccncc1 (stereo partly drawn) [Compound 64, (2S,5R)-1-{(2S)-2-Amino-2-[8-(pyridin-4-carbonyl)-8-aza-bicyclo[3.2.1]oct-3-yl]-exo-ethanoyl}-5-ethynyl-pyrrolidin-2-carbonitrile di trifluoro acetic acid salt], which IC50 is on record?
A: 11 nM

Q: N#C[C@@H]1CCCN1C(=O)[C@@H](N)C1CC2CCC(C1)N2C(=O)C12CC3CC(CC(C3)C1)C2 (stereo partly drawn) [Compound 3, (2S)-1-{(2S)-2-Amino-2-[8-(adamantane-1-carbonyl)-8-aza-bicyclo[3.2.1]oct-3-yl]-exo-ethanoyl}-pyrrolidin-2-carbonitrile trifluoroacetic acid salt] was tested. Which IC50 did it give?
A: 6.67 nM

Q: Which IC50 does the source give for C#C[C@H]1CC[C@@H](C#N)N1C(=O)[C@@H](N)C1CC2CCC(C1)N2C(=O)c1ccc(C(F)(F)F)cc1 (stereo partly drawn) [Compound 63, (2S,5R)-1-{(2S)-2-Amino-2-[8-(4-trifluoromethyl-benzoyl)-8-aza-bicyclo[3.2.1]oct-3-yl]-exo-ethanoyl}-5-ethynyl-pyrrolidin-2-carbonitrile trifluoro acetic acid salt] here?
A: 15.5 nM

Q: N#Cc1ccc(C(=O)N2C3CCC2CC([C@H](N)C(=O)N2CCC[C@H]2C#N)C3)cc1 (stereo partly drawn) [Compound 5, (2S)-1-{(2S)-2-Amino-2-[8-(4-cyano-benzoyl)-8-aza-bicyclo[3.2.1]oct-3-yl]-exo-ethanoyl}-pyrrolidin-2-carbonitrile trifluoroacetic acid salt] was tested. Which IC50 did it give?
A: 1.52 nM

Q: Which IC50 does the source give for N#C[C@@H]1C[C@@H]2C[C@@H]2N1C(=O)[C@@H](N)C1CC2CCC(C1)N2C(=O)c1cccnc1 (stereo partly drawn) [Compound 33, (1S,3S,5S)-2-{(2S)-2-Amino-2-[8-(pyridine-3-carbonyl)-8-aza-bicyclo[3.2.1]oct-3-yl]-exo-ethanoyl}-2-azabicyclo[3.1.0]hexane-3-carbonitrile di trifluoroacetic acid salt] here?
A: 9.43 nM

Q: How did the IC50 turn out when N#C[C@@H]1CCCN1C(=O)[C@@H](N)C1CC2CCC(C1)N2Cc1cc(F)c(F)cc1F (stereo partly drawn) [Compound 9, (2S)-1-{(2S)-2-Amino-2-[8-(2,4,5-trifluorobenzyl)-8-aza-bicyclo[3.2.1]oct-3-yl]-exo-ethanoyl}-pyrrolidin-2-carbonitrile trifluoroacetic acid salt] was run?
A: 3.13 nM
